# Test results as given in article PMC8493129, “Design and Synthesis of New Quinoxaline Derivatives as Potential Histone Deacetylase Inhibitors Targeting Hepatocellular Carcinoma: In Silico, In Vitro, and SAR Studies” (Frontiers in Chemistry, 2021).
# Where “and” joins values, the source holds several entries; their conditions need not be identical. Equal entries are not always repeated.
# Columns and labels:
# [1] = test system: HepG-2 liver cancer cell line; test: Anti-proliferative activity (MTT / SRB assay), HepG-2; assay type: cell-based, human; settings: Homo sapiens, HepG2; HepG-2; mean of three separate experiments
# Method: (§1) The new quinoxaline derivatives of the five series: 6, 7, 8, 9, and 10 were evaluated for their potential anti-proliferative activity against two liver cancer cell lines (HepG-2 and HuH-7) obtained from the American Type Culture Collection.
# [2] = test system: HuH-7 liver cancer cell line; test: Anti-proliferative activity (MTT / SRB assay), HuH-7; assay type: cell-based, human; settings: Homo sapiens, mean of three separate experiments
# Method: as §1
# HepG-2 cells [3] = test: Cell cycle analysis by flow cytometry; assay type: cell-based, human
# Method: The most compound 6 c incorporating 4-Cl benzylidene side chain was further evaluated through cell cycle analysis in HepG-2 cell line. Such a test was carried out to detect the exact phase at which cell cycle arrest takes place.
# HepG-2 cells [4] = test: Annexin V-FITC apoptosis assay; assay type: cell-based, human; settings: HepG-2, 1.53 µM
# Method: It is well-known that cell death may be due to programmed apoptosis or uncontrolled necrosis. Annexin V-based flow cytometry assay as a helpful strategy to determine the exact cause of death was carried out. […] This confirms that the cytotoxic activity of compound 6 c is due to programmed apoptosis, and not to nonspecific necrosis.
# The previous compound was analyzed by FACS as we previously described ([Al-Rashood et al., 2020]; [Eliaa et al., 2020]; [Eldehna et al., 2021]).
# Bax = test: Apoptotic marker level (Bax) in HepG-2 cells; assay type: cell-based, human; settings: control 24.37 pg/ml
# Method: (§2) The method was performed in detail as previously explained ([Eliaa et al., 2020]).
# Bcl-2 = test: Anti-apoptotic marker level (Bcl-2) in HepG-2 cells; assay type: cell-based, human; settings: control 5.048 pg/ml
# Method: as §2
# HDAC1 = HDAC1 (Homo sapiens, UniProt Q13547); test: Histone deacetylase inhibition, homogeneous fluorescence release assay
# HDAC4 = HDAC4 (Homo sapiens, UniProt P56524); test: as above
# HDAC6 = biological target: T1, HDAC6 (Homo sapiens, UniProt Q9UBN7); test: as above
# T1 sequence (Q9UBN7 1-1215): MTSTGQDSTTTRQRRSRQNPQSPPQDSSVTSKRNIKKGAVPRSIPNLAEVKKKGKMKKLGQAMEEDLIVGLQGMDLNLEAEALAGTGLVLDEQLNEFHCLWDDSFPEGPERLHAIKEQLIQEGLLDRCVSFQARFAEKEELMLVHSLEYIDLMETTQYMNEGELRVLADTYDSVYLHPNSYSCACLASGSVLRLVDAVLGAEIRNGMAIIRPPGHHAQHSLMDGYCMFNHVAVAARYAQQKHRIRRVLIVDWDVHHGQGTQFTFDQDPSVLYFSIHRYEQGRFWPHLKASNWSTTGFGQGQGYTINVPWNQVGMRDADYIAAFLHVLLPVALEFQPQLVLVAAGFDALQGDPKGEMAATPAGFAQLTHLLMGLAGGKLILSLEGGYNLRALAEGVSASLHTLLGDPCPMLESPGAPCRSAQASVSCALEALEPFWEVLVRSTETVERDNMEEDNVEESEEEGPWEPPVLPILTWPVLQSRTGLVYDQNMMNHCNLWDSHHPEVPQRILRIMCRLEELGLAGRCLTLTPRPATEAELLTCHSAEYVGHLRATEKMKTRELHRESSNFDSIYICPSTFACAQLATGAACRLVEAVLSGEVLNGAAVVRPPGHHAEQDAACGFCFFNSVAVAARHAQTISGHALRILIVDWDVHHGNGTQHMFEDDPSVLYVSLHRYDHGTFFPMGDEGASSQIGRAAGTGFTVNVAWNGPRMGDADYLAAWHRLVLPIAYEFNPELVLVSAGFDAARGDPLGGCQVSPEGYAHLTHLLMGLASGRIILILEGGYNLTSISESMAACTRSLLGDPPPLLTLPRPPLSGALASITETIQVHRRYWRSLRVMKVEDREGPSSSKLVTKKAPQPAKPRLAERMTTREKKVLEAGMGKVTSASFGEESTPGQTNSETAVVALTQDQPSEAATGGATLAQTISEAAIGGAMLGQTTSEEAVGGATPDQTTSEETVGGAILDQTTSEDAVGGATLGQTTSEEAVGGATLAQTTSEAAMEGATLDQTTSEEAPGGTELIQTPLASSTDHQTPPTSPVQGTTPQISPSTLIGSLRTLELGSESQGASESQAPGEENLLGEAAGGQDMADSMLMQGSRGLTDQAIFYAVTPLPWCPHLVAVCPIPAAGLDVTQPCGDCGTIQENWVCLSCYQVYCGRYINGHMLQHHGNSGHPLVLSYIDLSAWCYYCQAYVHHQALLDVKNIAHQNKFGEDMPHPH
# [5] = test system: HepG-2 and HuH-7 liver cancer cell lines; test: Anti-proliferative activity, statements covering both cell lines; assay type: cell-based, human; settings: class by IC50 on HepG-2 and HuH-7
# Method: as §1
# HDAC4, sequence (P56524 whole entry): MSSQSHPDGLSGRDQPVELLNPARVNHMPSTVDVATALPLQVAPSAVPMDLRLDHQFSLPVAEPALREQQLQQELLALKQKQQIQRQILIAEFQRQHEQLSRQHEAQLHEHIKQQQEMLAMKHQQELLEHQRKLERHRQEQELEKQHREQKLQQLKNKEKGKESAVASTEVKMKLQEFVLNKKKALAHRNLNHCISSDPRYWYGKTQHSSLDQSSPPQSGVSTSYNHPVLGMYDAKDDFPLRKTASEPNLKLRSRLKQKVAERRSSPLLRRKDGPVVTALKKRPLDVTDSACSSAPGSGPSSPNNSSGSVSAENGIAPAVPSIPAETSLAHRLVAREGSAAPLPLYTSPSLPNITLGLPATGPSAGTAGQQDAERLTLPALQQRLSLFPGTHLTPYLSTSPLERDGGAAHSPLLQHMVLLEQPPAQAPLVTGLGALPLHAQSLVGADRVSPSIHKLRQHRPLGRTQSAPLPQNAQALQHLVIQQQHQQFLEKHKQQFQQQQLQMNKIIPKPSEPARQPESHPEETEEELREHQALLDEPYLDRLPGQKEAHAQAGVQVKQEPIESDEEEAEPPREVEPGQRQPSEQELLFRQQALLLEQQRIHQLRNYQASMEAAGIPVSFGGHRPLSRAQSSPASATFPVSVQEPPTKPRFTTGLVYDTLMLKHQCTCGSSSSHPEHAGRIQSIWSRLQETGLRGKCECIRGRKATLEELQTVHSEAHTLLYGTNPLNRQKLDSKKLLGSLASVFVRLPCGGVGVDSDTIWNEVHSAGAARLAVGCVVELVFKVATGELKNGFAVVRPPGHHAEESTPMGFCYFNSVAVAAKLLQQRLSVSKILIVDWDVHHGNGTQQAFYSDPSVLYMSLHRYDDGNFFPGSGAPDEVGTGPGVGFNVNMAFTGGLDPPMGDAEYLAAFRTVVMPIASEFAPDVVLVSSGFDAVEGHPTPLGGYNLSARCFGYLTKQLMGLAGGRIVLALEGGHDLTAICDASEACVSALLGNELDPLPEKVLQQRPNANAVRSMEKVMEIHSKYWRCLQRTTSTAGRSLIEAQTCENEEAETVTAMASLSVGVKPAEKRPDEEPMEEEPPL
# HDAC1, sequence (Q13547 whole entry): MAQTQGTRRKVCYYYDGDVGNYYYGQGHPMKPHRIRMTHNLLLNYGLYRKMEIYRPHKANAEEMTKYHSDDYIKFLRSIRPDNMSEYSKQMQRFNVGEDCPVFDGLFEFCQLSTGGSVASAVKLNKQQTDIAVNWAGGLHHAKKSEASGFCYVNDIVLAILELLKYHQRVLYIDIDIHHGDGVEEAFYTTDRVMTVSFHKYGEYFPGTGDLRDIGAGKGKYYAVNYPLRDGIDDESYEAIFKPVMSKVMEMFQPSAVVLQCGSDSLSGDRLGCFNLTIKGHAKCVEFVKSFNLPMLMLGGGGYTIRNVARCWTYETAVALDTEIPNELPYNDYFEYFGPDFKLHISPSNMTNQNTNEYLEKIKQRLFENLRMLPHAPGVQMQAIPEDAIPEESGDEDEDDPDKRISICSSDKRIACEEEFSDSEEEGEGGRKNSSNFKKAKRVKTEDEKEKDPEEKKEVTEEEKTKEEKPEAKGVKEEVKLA
IC50 [1],IC50 [2],IC50 (HDAC1),IC50 (HDAC4),IC50 (HDAC6),Structure (SMILES),"decline in the cell population at G0/G1 phase compared to control (HepG-2 cells [3]; HepG-2, 1.53 µM)","decline in the cell population at S phase compared to control (HepG-2 cells [3]; HepG-2, 1.53 µM)","increase in the population of cells at the G2/M phase compared to control (HepG-2 cells [3]; HepG-2, 1.53 µM)","%G2/M (HepG-2 cells [3]; HepG-2 cells treated at 1.53 µM, control 18.67%)","%S (HepG-2 cells [3]; HepG-2 cells treated at 1.53 µM, control 35.93%)","%G0-G1 (HepG-2 cells [3]; HepG-2 cells treated at 1.53 µM, control 45.40%)","increase in apoptosis percentage compared to the control, early phase (HepG-2 cells [4])","increase in apoptosis percentage compared to the control, late phase (HepG-2 cells [4])","AnxV-FITC apoptotic cells percentage, late apoptosis (HepG-2 cells [4]; control 0.53%)","AnxV-FITC apoptotic cells percentage, early apoptosis (HepG-2 cells [4]; control 0.62%)",Bax (Bax),Bcl-2 (Bcl-2),cytotoxic (anti-proliferative) activity class [5]
1.53 µM,3.06 µM,1760 nM,1390 nM,3460 nM,"Clc1ccc(C=NNc2nc3ccccc3nc2Cl)cc1 [Compound 6 c, 2-Chloro-3-(2-(4-chlorobenzylidene)hydrazinyl)quinoxaline]",1.23 fold,1.18 fold,1.76 fold,32.93%,30.32%,36.75%,9.98 fold,10.81 fold,5.73%,6.19%,274.3 pg/mL,1.27 pg/mL and 1.278 pg/mL,–
4.03 µM,6.19 µM,2670 nM,2510 nM,5240 nM,"CC(=NNc1nc2ccccc2nc1Cl)c1ccccc1O [Compound 7 b, 2-(1-(2-(3-Chloroquinoxalin-2-yl)hydrazono)ethyl)phenol]",–,–,–,–,–,–,–,–,–,–,217.9 pg/mL,2.371 pg/mL,very strong (1–10 (very strong))
